Test results from patent US6486175B1, “Diester prodrugs of a decahydroisoquinoline-3-carboxylic acid” (Eli Lilly and Company, priority 1999, dated 2002).

Columns and labels:
[1] = Bioavailability in Dogs: plasma pharmacokinetics of Compound A after i.v./p.o. dosing; assay type: in vivo; conditions: both sexes, dog, iv, Beagle dogs, 10 mg/kg
Protocol: (§1) The following in vivo data, in rats, dogs and monkeys, exemplify the surprising improvement in bioavailability of the diester prodrugs of the present invention over the diacid of 3S,4aR,6S, 8aR-6-(((4-carboxy)phenyl)methyl)1,2,3,4,4a,5,6,7,8,8a-decahydroisoquinoline-3-carboxylic acid. Percent bioavailability is determined using the following equation: [formula]
(§2) wherein AUC represents the area under the curve, p.o. represents oral dose, and i.v. represents intravenous dose.
Beagle dogs (2 male and 1 female) were administered an oral and iv dose of 3S,4aR,6S,8aR-6-(((4-carboxy)phenyl)methyl)-1,2,3,4,4a,5,6,7,8,8a-decahydroisoquinoline-3-carboxylic acid (10 mg/kg) to determine oral bioavailability. The same three dogs were also administered an oral 10 mg/kg dose of compound 3S,4aR,6S,8aR-6-(((4-carboxy)phenyl)methyl)-1,2,3,4,4a,5,6,7,8,8a-decahydroisoquinoline-3-carboxylic acid, diethyl ester, to determine whether the prodrug would increase bioavailability. The plasma concentrations of 3S,4aR,6S,8aR-6-(((4-carboxy)phenyl)methyl)-1,2,3,4,4a,5,6,7,8,8a-decahydroisoquinoline-3-carboxylic acid were determined by LC/MS/MS. […]

[2] = Pharmacokinetic parameters of Compound A in Fischer Rats after a 10 mg/kg dose; assay type: in vivo; conditions: rat, iv, plasma Compound A
Protocol: as §1, §2
Tables 1 and 2 below summarize the pharmacokinetic parameters found for Compounds A and B following 10 mg/kg administration (i.v. or p.o.) to Beagle Dogs and Fischer Rats respectively.

[3] = Bioavailability in Cynomolgus Monkeys: plasma pharmacokinetics of Compound A after i.v./p.o. dosing; conditions: cynomolgus monkey, in vivo
Protocol: as §1, §2
Four female monkeys were administered an oral and iv dose of compound A (oral: 10 mg/kg; iv: 1 mg/kg) to determine oral bioavailability. The same animals were also administered an oral 10 mg/kg dose of compound B. The plasma concentrations of compound A were determined by LC/MS/MS.
Four female cynomolgus monkeys were given a single iv dose of compound A (1 mg/kg) on day 0, a single oral dose of compound A (10 mg/kg) on day 6 and a single oral dose of compound B (10 mg/kg) on day 10. Blood was collected at 0.5, 1, 2, 3, 4, 5, 6 and 8 hours post dose for oral dosing and 0.167, 0.33, 0.67, 1, 1.5, 2, 3 and 4 hours post dose for iv dosing. Dosing solutions for compound A and compound B were prepared in water. […] Measurable levels of drug (>10 ng/ml) were still present 8 hours post dose. […] Bioavailability was estimated at 34.8%.

Row | SMILES | AUC [1] | Cmax [1] | AUC [2] | Cmax [2] | levels of drug in plasma at 0.5 hr ([3]; po, 10 mg/kg) | AUC ([3]; female, iv, 1 mg/kg) | Cmax ([3]; female, iv, 1 mg/kg) | clearance ([3]; female, iv, 1 mg/kg) | half-life ([3]; female, iv, 1 mg/kg) | % Bioavail ([3]; female, po, 10 mg/kg) | AUC ([3]; female, po, 10 mg/kg) | Cmax ([3]; female, po, 10 mg/kg) | Improvement ([3]; female, po, 10 mg/kg) | Tmax ([3]; female, po, 10 mg/kg) | concentration at 8 h ([3]; female, po, 10 mg/kg) | plasma levels of compound B (unchanged prodrug) ([3]; po, 10 mg/kg) | increase in the bioavailability ([3]; female, po, 10 mg/kg)
1 | O=C(O)c1ccc(C[C@H]2CC[C@H]3CN[C@H](C(=O)O)C[C@H]3C2)cc1 [Compound A, 3S,4aR,6S,8aR-6-(((4-carboxy)phenyl)methyl)-1,2,3,4,4a,5,6,7,8,8a-decahydroisoquinoline-3-carboxylic acid] | 41400 ng·h/mL | 28800 ng/mL | 2410 ng·h/mL | 6280 ng/mL | measurable levels of drug were detected | 1190 ng·h/mL | 1920 ng/mL | 14 mL/min/kg | 42 min | 11.1% | 1,320 ng hr/mL | 127 ng/mL | 1 X | 60 min | > 10 ng/mL |  | 
2 | CCOC(=O)c1ccc(C[C@H]2CC[C@H]3CN[C@H](C(=O)OCC)C[C@H]3C2)cc1.Cl [Compound B, 3S,4aR,6S, 8aR-6-(((4-carboxy)phenyl)methyl)-1,2,3,4,4a,5,6,7,8,8a-decahydroisoquinoline-3-carboxylic acid HCl, diethyl ester] |  |  |  |  |  |  |  |  |  | 34.8% | 4,149 ng hr/mL |  | 3.1X |  |  | No detectable plasma levels | 3.1 fold
